Columns and labels:
[1] = target: WT hERG (inward tail current) (Homo sapiens, UniProt Q12809); settings: human, HEK-293 cells transiently expressing wild-type hERG
From the text: (§1) The hERG mutations were constructed by site-directed mutagenesis of WT hERG cDNA in pcDNA3.1 vector using the QuickChange Site-Directed Mutagenesis Kit (Stratagene), and the integrity of the construct was verified by DNA sequencing. The WT hERG (generously donated by Professor Ho, Seoul National University, Korea) and mutant channels were transiently expressed in an HEK-293 cell line using Lipofectamine 2000 (Gibco), according to the manufacturer’s recommendations.

[2] = target: WT (inward) hERG (Homo sapiens, UniProt Q12809); settings: 3 μM, -120 mV, high K+
From the text: as §1

[3] = target: T623A hERG (Homo sapiens, UniProt Q12809, T623A); settings: 3 μM
From the text: as §1

[4] = target: S624A hERG (Homo sapiens, UniProt Q12809, S624A); settings: 3 μM
From the text: as §1

[5] = target: WT hERG (Homo sapiens, UniProt Q12809); assay: Alanine scanning: wild-type hERG current in HEK-293 cells
From the text: as §1

[6] = cited from earlier work
[7] = target: Y652A hERG (Homo sapiens, UniProt Q12809, Y652A); assay: in vitro; settings: HEK-293 cells transiently expressing Y652A mutant hERG
[8] = system: hiPSC-CMs; assay: Spontaneous action potential recording in hiPSC-CMs (whole-cell current clamp); type: cell-based, human
Description: The hiPSC-CMs from human fibroblast cell lines (iCell Cardiomyocytes; Cellular Dynamics International, Madison, WI, USA) were purchased and cultured for single-cell electrophysiological recordings. Frozen vials of hiPSC-CMs were thawed in a water bath maintained at 37°C and mixed with ice-cold plating medium (iCell Cardiomyocyte Plating Medium, glucose-free). The cells were transferred to four-well culture plates containing 0.1% gelatin-coated glass coverslips and then maintained in a culture incubator at 37°C in an atmosphere of 93% air and 7% CO2. After 2 days of culture, the plating medium was replaced with culture medium (iCell Cardiomyocyte Maintenance Medium, glucose-free), which was then changed every 2 days. The hiPSC-CMs were cultured for 4 weeks and used at 7 to 28 days post-thaw for electrophysiological analysis. At this time, the amplitudes and intervals of the spontaneous APs are stabilized, and electrically connected syncytial layers are formed. […] The internal solution contained (in mM) 120 K-Asp, 20 KCl, 5 NaCl, 2 CaCl2, 10 HEPES, 5 EGTA, and 5 Mg-ATP (pH 7.25). We recorded typical APs in hiPSC-CMs in the current-clamp mode. The spontaneous beating activity or paced firing of single hiPSC-CMs were recorded, and only hiPSC-CMs that could beat stably were included in the analysis. Following stabilization of the AP waveforms, the average of six recorded APs for each test concentration was analyzed.
Using the patch-clamp technique, we measured the APs in spontaneously contracting cells isolated from hiPSC-CMs. […] Ventricular-type APs were distinguished based on the relatively more negative maximal diastolic potential (MDP) and rapid AP upstroke with long plateau phase.

In the case of `COc1cc2c(Nc3ccc(Br)cc3F)ncnc2cc1OCC1CCN(C)CC1` [Vandetanib], the inhibition at 3 μM [1] is reported as 69 ± 1.8%, the “WT (inward) hERG current” value [2] is reported as -1818.9 ± 217.3 and the “T623A hERG current” value [3] is reported as 266.1 ± 117.0. The “S624A hERG current” value [4] was 78.1 ± 31.0, the “WT hERG current” value ([5]; 3 μM) was 208.9 ± 21.6 and the inhibition at 3 μM ([5]; human, HEK-293 cells transiently expressing wild-type hERG) was ~86.4%. For the same molecule, the “Incidence of asymptomatic QTc prolongation” value ([6]; Japanese phase I trial) was 61%, the “Patients with side effects such as diarrhea/colitis, rash, nausea, and hypertension” value ([6]; patients) was > 20% and the “Patients who developed asymptomatic QTc prolongation” value ([6]; phase I trial in solid tumors) was 9%. The “Incidence of asymptomatic QT prolongation” value ([6]; phase II trials) was 15%, the inhibition at 3 μM [7] was 64.2 ± 2.8% and the APA ([8]; 0.3 μM) was 104.2 ± 3.0 mV. For the same molecule, the APD50 ([8]; 0.3 μM) was 349.3 ± 50.9 ms, the APD90 ([8]; 0.3 μM) was 481.0 ± 53.9 ms and the MDP ([8]; 0.3 μM) was -66.9 ± 2.3 mV. It also gave a Vmax ([8]; 0.3 μM) of 40.3 ± 13.9 V/s, an APA ([8]; 1 μM) of 105.5 ± 3.6 mV and an APD50 ([8]; 1 μM) of 596.4 ± 158.8 ms. It also gave an APD90 ([8]; 1 μM) of 880.9 ± 192.6 ms, an MDP ([8]; 1 μM) of -64.5 ± 2.4 mV and a Vmax ([8]; 1 μM) of 36.0 ± 13.0 V/s. It also gave an APA ([8]; 3 μM) of 100.7 ± 2.2 mV, an APD50 ([8]; 3 μM) of 1243.0 ± 386.1 ms and an APD90 ([8]; 3 μM) of 2047.9 ± 597.1 ms. The “Decrease of APA compared to vehicle control” value ([8]; 3 μM) was 4.2%, the “Decrease of MDP compared to vehicle control” value ([8]; 3 μM) was 9% and the MDP ([8]; 3 μM) was -61.0 ± 1.5 mV. The Vmax ([8]; 3 μM) was 19.5 ± 6.5 V/s, the “Early after depolarization (EAD)” value ([8]; 3 μM, n = 6 cells) was “induced at 3 μM of vandetanib in all cells tested” and the “Concentration from which prolongation of APD50 and APD90 was observed” value ([8]; tested 0.3, 1, 3 μM) was ≥ 1 µM.

— publication PMC5891061, “Electrophysiological mechanisms of vandetanib-induced cardiotoxicity: Comparison of action potentials in rabbit Purkinje fibers and pluripotent stem cell-derived cardiomyocytes” (PLoS ONE, 2018)
